Experimental data from the supplement of paper PMC10307832.

What was measured:
Assay in all cases: relative viability (nuclei count vs DMSO), 5 days (fraction); higher = more cells survive
Cediranib + Linsitinib = compound: COc1cc2c(Oc3ccc4[nH]c(C)cc4c3F)ncnc2cc1OCCCN1CCCC1 [Cediranib] + C[C@]1(O)C[C@@H](c2nc(-c3ccc4ccc(-c5ccccc5)nc4c3)c3c(N)nccn32)C1 [Linsitinib] (partner 1 µM)
How it was run: (§1)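 Nuclei were stained with Hoechst during a one-step fixation (final 0.05% Triton X-100, 1% formaldehyde, 1 ug/ml Hoechst) carried out 5 days after dosing, then counted on 4× images. The cells, lung cancer lines in 1536-well plates, had been dosed by pin tool the day after seeding with one drug alone or a fixed anchor-drug dose plus five library-drug doses (not always all listed) in √10 steps. Relative viability is the nuclei count in treated wells divided by that in vehicle wells, and each value is the median of duplicate plates.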

Cediranib + AZD7762 = compound: COc1cc2c(Oc3ccc4[nH]c(C)cc4c3F)ncnc2cc1OCCCN1CCCC1 [Cediranib] + NC(=O)Nc1cc(-c2cccc(F)c2)sc1C(=O)N[C@H]1CCCNC1 [AZD7762] (partner 0.2 µM)
How it was run: as §1

[1] = compound: O=C(C[C@H]1NCCC[C@@H]1O)Cn1cnc2cc(Br)c(Cl)cc2c1=O (racemic) [Halofuginone] + CCNC(=O)c1noc(-c2cc(C(C)C)c(O)cc2O)c1-c1ccc(CN2CCOCC2)cc1 [Luminespib] (partner 0.01 µM)
How it was run: as §1

Decitabine + Trametinib = compound: Nc1ncn([C@H]2C[C@H](O)[C@@H](CO)O2)c(=O)n1 [Decitabine] + CC(=O)Nc1cccc(-n2c(=O)n(C3CC3)c(=O)c3c(Nc4ccc(I)cc4F)n(C)c(=O)c(C)c32)c1 [Trametinib] (partner 0.02 µM)
How it was run: as §1

| Cell Line | relative viability (Cediranib + Linsitinib; first compound 0.04 µM) | relative viability (Cediranib + Linsitinib; first compound 0.1265 µM) | relative viability (Cediranib + Linsitinib; first compound 0.4 µM) | relative viability (Cediranib + Linsitinib; first compound 1.265 µM) | relative viability (Cediranib + Linsitinib; first compound 4 µM) | relative viability (Cediranib + AZD7762; first compound 0.04 µM) | relative viability (Cediranib + AZD7762; first compound 0.1265 µM) | relative viability (Cediranib + AZD7762; first compound 0.4 µM) | relative viability (Cediranib + AZD7762; first compound 1.265 µM) | relative viability (Cediranib + AZD7762; first compound 4 µM) | relative viability ([1]; first compound 0.001 µM) | relative viability ([1]; first compound 0.003162 µM) | relative viability ([1]; first compound 0.01 µM) | relative viability ([1]; first compound 0.03162 µM) | relative viability ([1]; first compound 0.1 µM) | relative viability (Decitabine + Trametinib; first compound 0.04 µM) | relative viability (Decitabine + Trametinib; first compound 0.1265 µM) | relative viability (Decitabine + Trametinib; first compound 0.4 µM) | relative viability (Decitabine + Trametinib; first compound 1.265 µM) | relative viability (Decitabine + Trametinib; first compound 4 µM) |
| --- | --- | --- | --- | --- | --- | --- | --- | --- | --- | --- | --- | --- | --- | --- | --- | --- | --- | --- | --- | --- |
| NCI-H727 | 0.293 | 0.267 | 0.33 | 0.372 | 0.279 | 0.601 | 0.379 | 0.636 | 0.626 | 0.538 | 0.258 | 0.327 | 0.435 | 0.389 | 0.355 | 0.396 | 0.377 | 0.344 | 0.372 | 0.363 |
| NCI-H358 | 0.919 | 0.745 | 0.681 | 0.717 | 0.899 | 0.613 | 0.496 | 0.478 | 0.596 | 0.502 | 0.306 | 0.455 | 0.229 | 0.205 | 0.154 | 0.132 | 0.124 | 0.137 | 0.121 | 0.126 |
| NCI-H1437 | 1.09 | 0.987 | 0.951 | 1.04 | 1.01 | 1.12 | 1.1 | 1.15 | 1.07 | 0.998 | 1.12 | 1.1 | 1.1 | 1.04 | 0.879 | 0.444 | 0.412 | 0.404 | 0.337 | 0.342 |
| NCI-H441 | 0.445 | 0.546 | 0.524 | 0.551 | 0.652 | 1.26 | 1.25 | 1.07 | 1.16 | 1.18 | 0.352 | 0.292 | 0.487 | 0.306 | 0.213 | 0.317 | 0.281 | 0.255 | 0.183 | 0.206 |
| EMC-BAC-2 | 0.872 | 0.832 | 0.799 | 0.777 | 0.837 | 1.06 | 0.952 | 1.11 | 1.07 | 1.15 | 1.13 | 1.14 | 1.17 | 0.896 | 0.649 | – | 0.935 | 0.795 | 0.841 | 0.8 |
| NCI-H647 | 1.34 | 1.13 | 1.15 | 1.11 | 1.41 | 0.498 | 0.462 | 0.389 | 0.404 | 0.475 | 0.141 | 0.153 | 0.147 | 0.137 | 0.129 | 0.589 | 0.595 | 0.43 | 0.246 | 0.138 |
| CAL-12T | 0.95 | 0.864 | 0.691 | 0.865 | 0.714 | 0.668 | 0.638 | 0.633 | 0.603 | 0.669 | 0.73 | 0.548 | 0.489 | 0.423 | 0.14 | 0.303 | 0.361 | 0.217 | 0.265 | 0.294 |
| NCI-H1792 | 0.61 | 0.701 | 0.535 | 0.674 | 0.574 | – | 0.922 | 0.554 | 0.658 | 0.838 | 0.498 | 0.402 | 0.414 | 0.452 | 0.296 | 0.432 | 0.359 | 0.477 | 0.257 | 0.193 |
| H3255 | 1.04 | 1.04 | 0.89 | 0.898 | 0.912 | 0.889 | 0.811 | 0.924 | 0.824 | 0.886 | 0.807 | 0.742 | 0.974 | 0.908 | 0.924 | – | 0.686 | 0.506 | 0.5 | 0.46 |
| HCC-78 | 0.664 | 0.625 | 0.478 | 0.487 | 0.502 | 0.719 | 1.01 | 0.659 | 0.532 | 0.645 | – | – | – | – | – | 0.758 | 0.688 | 0.581 | 0.544 | 0.451 |
| EBC-1 | 1.14 | 1.05 | 0.882 | 0.609 | 0.802 | – | – | – | – | – | – | – | – | – | – | – | – | – | – | – |
| NCI-H2405 | 1 | 1.25 | 0.838 | 1.06 | 0.836 | 0.749 | 1.31 | 0.594 | 0.864 | 0.803 | 0.797 | 0.691 | 0.72 | 0.688 | 0.663 | 0.575 | 0.732 | 0.645 | 0.493 | 0.407 |
| A549 | 0.723 | 0.644 | 0.543 | 0.633 | 0.471 | – | – | – | – | – | – | – | – | – | – | – | – | – | – | – |
| NCI-H3122 | 1.01 | 1.07 | 0.986 | 1.02 | 1.03 | 1.05 | – | 0.95 | 0.969 | 1.07 | 0.0978 | 0.0825 | 0.0899 | 0.0925 | 0.148 | 0.213 | 0.208 | 0.243 | 0.167 | 0.218 |
| NCI-H1563 | 1.27 | 1.32 | 1.22 | 1.3 | 1.22 | – | – | – | – | – | 0.487 | 0.493 | 0.547 | 0.534 | 0.467 | – | – | – | – | – |
| HCC-44 | 0.7 | – | 0.636 | 0.654 | 0.729 | 1.09 | 0.843 | 1 | 0.941 | 1.04 | 1.09 | 1.15 | 1 | 1 | 0.155 | 1.04 | 0.991 | 0.833 | 0.819 | 0.75 |
| PC-3 [JPC-3] | 0.991 | 0.942 | 0.907 | 0.93 | 1.04 | 0.758 | – | 0.769 | 0.749 | 0.783 | 0.705 | 0.714 | 0.626 | 0.823 | 0.661 | – | 0.7 | 0.498 | 0.485 | 0.657 |
| NCI-H1993 | 0.774 | 0.751 | 0.701 | 0.648 | 0.818 | – | 0.923 | 0.819 | 0.588 | 0.755 | 1 | 1.05 | 0.699 | 0.863 | 0.682 | 0.491 | 0.431 | 0.394 | 0.432 | 0.511 |
